For 3 molecules, melting point results are on record in patent US7560491B2, “Z-stilbenes derivatives and the pharmaceutical composition thereof” (Taipei Medical University, priority 2006, dated 2009).

For orientation: melting point means the temperature of the solid-liquid transition. Molecule `COc1ccc(/C=C\c2cc(OC)cc(OC)c2N)cc1` yielded a melting point of 83.2 to 86.3 °C.

In the case of `COc1ccc(/C=C\c2cc(OC)c(OC)cc2N)cc1`, the melting point was in the range of 62.7 to 63.8 °C.

In the case of `COc1ccc(/C=C\c2cc(OC)c(OC)c(OC)c2N)cc1N`, the melting point fell in the range of 97.3 to 98.1 °C.
